Consider 1 compound from ChEMBL document CHEMBL3638868, “Nitrogenous-ring acylguanidine derivative” (2014).

The target in this test is 5-hydroxytryptamine receptor 5A (Homo sapiens, UniProt P47898). Kind of test: Binding Inhibition Assay: A solution of the compound to be tested and 100 μM 5-CT (5-carboxamidetriptamine) in DMSO was added to a 96-well plate at 2 μl/well, suspended in an incubation buffer, and a membrane from HEK293 cells for forced expressions of a human 5-HT5A receptor prepared at 200 ug/ml was added at 100 μl/well. After incubation at room temperature for 15 minutes, a [3H]5-CT solution (2 nM [3H]5-CT, incubation buffer) was added thereto at 100 μl/well.Separately, 100 μl of the solution was distributed into a liquid scintillation vial, and 2 ml of Aquasol II (registered trademark) was added thereto, followed by stirring. Then, radioactivity was measured by a liquid scintillation counter. It was incubated at 37C. for 60 minutes. The reaction mixture was sucked into 96-well GF/C filter plate that had been pre-treated with 0.2% polyethyleneimine, and washed six times with an ice-cooled, 50 mM Tris (pH 7.5) buffer. The GF/C filter plate was dried. Format: cell membranes.
Sequence of 5-hydroxytryptamine receptor 5A (P47898 whole entry): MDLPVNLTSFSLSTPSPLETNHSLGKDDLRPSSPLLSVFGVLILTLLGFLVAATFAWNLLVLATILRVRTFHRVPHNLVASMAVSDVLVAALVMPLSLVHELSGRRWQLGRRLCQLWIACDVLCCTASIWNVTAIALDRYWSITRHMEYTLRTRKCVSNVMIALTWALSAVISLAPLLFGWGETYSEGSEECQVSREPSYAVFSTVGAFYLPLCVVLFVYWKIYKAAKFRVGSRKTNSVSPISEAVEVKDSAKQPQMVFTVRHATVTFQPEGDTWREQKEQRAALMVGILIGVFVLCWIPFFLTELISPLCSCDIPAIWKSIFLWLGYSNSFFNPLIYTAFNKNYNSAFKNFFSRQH

Turning to `NC(N)=NC(=O)c1ccc2c(C(F)F)cnc(-c3c(F)cccc3F)c2c1`, the Ki came to 4.6 nM.

Usually Ki stands for the dissociation constant of the complex between target and ligand, obtained from inhibition or displacement.
